Read-outs that look alike come from different tables or passages of the source.
Experiments:
[1] = cited from earlier work
[2] = Autosampler stability of extracted dog plasma samples at 4 °C; assay type: physicochemical
Procedure: The stability of extracted dog and mouse plasma samples in the autosampler at 4 °C was established for 24 and 48 h. Except for GEM-IB, in mouse and dog plasma extracts, all analytes were within ±20% of the nominal enriched concentration for up to 48 h in the autosampler. GEM-IB was stable for up to 24 h under these conditions.
Method development and validation was conducted following applicable FDA guidelines for bioanalytical assays, as considered fit for purpose. Specificity. Endogenous interferences were excluded by analysis of blank plasma from 6 different individual lots of plasma. The lower limit of quantification (LLOQ) was determined as the lowest concentration consistently achieving an accuracy better than ±20% of the nominal concentration, with imprecision ≤20%. Predefined acceptance criteria. The performance of the assay was considered acceptable if intra- and inter-day imprecision (coefficient of variance, %CV) at each concentration was ≤15%, except at the LLOQ (≤20%). Intra- and inter-day accuracy had to be ±15% of the nominal value, except at the LLOQ (±20%). Calibration curves had to have a correlation coefficient (r) of 0.99 or better. Analytical recovery and imprecision. Intra- and inter-day analytical accuracy and imprecision were tested at least at four concentration levels depending on the LLOQ for each compound. Intra-day imprecision and accuracy were determined with n = 6 per QC level. Inter-day imprecision and accuracy were measured over 3 days, with six replicates for each QC concentration (n = 18). Extraction efficiency and matrix effect. Extraction efficiency for GEM-IB and metabolites was established by comparing the signals of the analytes after the extraction of QCs (n = 6/concentrations), with the signals of the extracted blank matrix spiked with the respective concentrations of analytes after the extraction procedure. The matrix effect was determined by comparing the analyte LC-MS/MS signal after spiking of the analyte into the extracted blank matrix (matrix from 6 different individual lots, analyte concentrations as for the QC samples) with the HPLC-MS/MS signal of the same amount of analyte in neat solution [25]. Carry-over. Carry-over was assessed by injecting blank buffer samples after analysis of the highest calibrators. Carry-over was considered insignificant if there was no signal at the relevant retention times exceeding 20% of the analyte signals at the LLOQ. Stability. QC samples were freshly prepared. One set was extracted and was analyzed immediately to determine baseline signals. Analyte stability in plasma was evaluated at two QC concentration levels (n = 3/concentration level) under different conditions: 1, 2, and 24 h at room temperature and at 4 °C. In addition, stability after extraction was determined after 24 h and 48 h at 4 °C in the autosampler and for up to 3 freeze (−70 °C)–thaw (ambient) cycles. Stability was assessed by comparing analyte concentrations with baseline (t0) concentrations. Stability was assumed when the results were within ±20% of the baseline concentrations. Long-term stability estimates were performed by re-extraction of samples used during the PK study (n = 6). Samples were initially analyzed for the PK assessment and were stored for 1.5 years (GEM-IB and IB) and 2.5 years (GEM, GEMMP, dFdU, and dFdU-MP) at <−70 °C prior to reanalysis. Stability was assessed by comparing analyte concentrations with the initial assessments. Stability was acceptable when the results were within ±20% of the baseline concentrations and the percent standard deviation (%-SD) was below 25%.

[3] = Stability in dog plasma (accelerated, freeze-thaw, frozen PK samples); assay type: in vitro ADME; details: dog plasma PK samples re-extracted after 2.5 years at <−70 °C
[4] = Stability in mouse plasma (accelerated, freeze-thaw, frozen PK samples); assay type: in vitro ADME; details: mouse plasma PK samples re-extracted after 2.5 years at <−70 °C
[5] = parameters: method as in PMID 33744463; details: (enriched) mouse plasma; cited from earlier work
[6] = parameters: method as in PMID 36571444, PMID 24131140, PMID 21561347; details: cancer patients; cited from earlier work

| %-ACC (% accuracy vs nominal) ([2]; 24 hours autosampler 4 °C) | %-ACC (% accuracy vs nominal) ([2]; 48 hours autosampler 4 °C) | %-ACC, frozen PK sample stability [3] | %-ACC, frozen PK sample stability [4] | Structure (SMILES) | duration stable in human plasma ([1]; −20 °C) | duration stable in mouse plasma [5] | fatal treatment-related events, share of patients [6] | duration stable in human plasma ([1]; −70 °C) |
| --- | --- | --- | --- | --- | --- | --- | --- | --- |
| 111.2% | 107.7% | – | – | CCCCCN(C)CCC(O)(P(=O)(O)O)P(=O)(O)O [IB, ibandronate] | up to 4 months | – | – | – |
| 99.0% | 102.0% | 63.4% | 71.5% | O=c1ccn([C@@H]2O[C@H](CO)[C@@H](O)C2(F)F)c(=O)[nH]1 [dFdU, 2′,2′-difluoro-2′-deoxyuridine] | – | up to 42 days | – | – |
| 92.6% | 84.8% | 49.3% | 108.1% | O=c1ccn([C@@H]2O[C@H](COP(=O)(O)O)[C@@H](O)C2(F)F)c(=O)[nH]1 [dFdUMP, 2′,2′-difluoro-2′-deoxyuridine-5′-phosphate] | – | – | – | – |
| 86.2% | 63.4% | – | – | CCCCCN(C)CCC(O)(P(=O)(O)O)P(=O)(O)OP(=O)(O)OC[C@H]1O[C@@H](n2ccc(N)nc2=O)C(F)(F)[C@@H]1O (some centres unmarked) [GEM-IB] | – | – | – | – |
| 92.4% | 90.0% | 58.1% | 64.0% | Nc1ccn([C@@H]2O[C@H](COP(=O)(O)O)[C@@H](O)C2(F)F)c(=O)n1 [GEMMP, gemcitabine-5′-phosphate] | – | – | – | – |

| Structure (SMILES) | %-ACC (% accuracy vs nominal) ([2]; 24 hours autosampler 4 °C) | %-ACC (% accuracy vs nominal) ([2]; 48 hours autosampler 4 °C) | %-ACC, frozen PK sample stability [3] | %-ACC, frozen PK sample stability [4] | duration stable in human plasma ([1]; −20 °C) | duration stable in mouse plasma [5] | fatal treatment-related events, share of patients [6] | duration stable in human plasma ([1]; −70 °C) |
| --- | --- | --- | --- | --- | --- | --- | --- | --- |
| Nc1ccn([C@@H]2O[C@H](CO)[C@@H](O)C2(F)F)c(=O)n1 [GEM, gemcitabine] | 100.7% | 106.8% | – | – | – | up to 42 days | <1% to 4 | up to 30 days |
